Like-named read-outs stand apart in the source and are kept apart here.

This is an account of results in paper PMC4746011, “IspH–RPS1 and IspH–UbiA: “Rosetta stone” proteins” (Chemical Science, 2015).

The target of data set [1] is T1, CthIspH–RPS1 (Acetivibrio thermocellus (Clostridium thermocellum), UniProt A3DDC0). In words: CthIspH–RPS1 inhibition assay (methyl viologen method). As to IC50 against CthIspH–RPS1: 40 nM enzyme, 50 µM HMBPP, 40 µM dithionite. It counts as biochemical. Here is the method:
(§1) The CthIspH kinetics and inhibition assays were performed by using the methyl viologen method described previously.[27] […] The reactions were monitored at 606 nm. K m and k cat were fitted by using a Michaelis–Menten relation in Origin 9.1. The extinction coefficient for the methyl viologen radical cation at 606 nm was taken to be 13 700 M^–1 cm^–1.[28]

In a further data set the test system is AaIspH. More on the design: method as in PMID 24481599, PMID 20426416. The note with it: Fig. 5a bottom value; read-out: IC50 against AaIspH; cited from earlier work.
In data set [2] the target is T1, CthIspH–RPS1. In words: CthIspH–RPS1 Michaelis–Menten kinetics (methyl viologen assay). It counts as biochemical. The following applies: substrate HMBPP, room temperature. The protocol:
as §1
Substrate consumption and product formation were also confirmed by LC-MS (Fig. S3 ^†) and NMR analysis.

Data set [3] has as its system IspH from the thermophile Aquifex aeolicus. More on the design: method as in PMID 24481599. The following applies: A. aeolicus IspH; cited from earlier work.
Substrate in data set [4]: C/C(=C\COP(=O)(O)OP(=O)(O)O)CO
In words: purified protein, by the assay type. The following applies: other: substrate HMBPP, room temperature.

Where [5] appears, read: read-out: IC50 against CthIspH–RPS1.

In general, IC50 refers to the concentration needed to halve the response being measured. Consider `C#CCOP(=O)(O)OP(=O)(O)O` [Compound 4], for which the concentration for half-maximal inhibition (IC50) at CthIspH–RPS1 [1] (setting [5]) came out at 8.8 µM.
Take `C#CCCOP(=O)(O)OP(=O)(O)O` [Compound 5]: the half-maximal inhibitory concentration (IC50) is 0.45 µM in the data set with AaIspH and 3.3 µM at CthIspH–RPS1 [1] (setting [5]).
As for `C#CCCCOP(=O)(O)OP(=O)(O)O` [Compound 6], at CthIspH–RPS1 [1] (setting [5]), the IC50 was determined as 47 µM.
The same measure, in the same setting: in the case of `O=P(O)(O)OP(=O)(O)OCc1cccnc1` [Compound 7] it was 150 µM.
Consider `O=P(O)(O)OP(=O)(O)OCCc1cccnc1` [Compound 8], for which the IC50 on CthIspH–RPS1 [1] (setting [5]) was found to be 240 µM.
Still for that read-out and setting: in the case of `O=P(O)(O)OP(=O)(O)OCCCc1cccnc1` [Compound 9] it was 490 µM; in that of `O=P(O)(O)OP(=O)(O)OCc1ccncc1` [Compound 10], 120 µM; in that of `O=P(O)(O)OP(=O)(O)OCC#CCO` [Compound 11], 92 µM.
Still for that read-out and setting: to `CC#CCOP(=O)(O)OP(=O)(O)O` [Compound 12] belongs 760 µM.
Molecule `O=P(O)(O)OP(=O)(O)SCC#CCO` [Compound 13, 4-Hydroxybut-2-ynyl-S-thiolodiphosphate] displayed a 50% inhibitory concentration (IC50) against CthIspH–RPS1 [1] of 3.8 µM. Further, the “activity against CthIspH–RPS1 (in words)” value on CthIspH–RPS1 [1] (inhibition of catalytic activity) was “very active”.
The term Km denotes the substrate concentration at which the rate is half of its maximum. Consider `C/C(=C\COP(=O)(O)OP(=O)(O)O)CO` [HMBPP, (E)-1-hydroxy-2-methyl-but-2-enyl 4-diphosphate], for which the figures for the kcat (on CthIspH–RPS1 [2]; in data set [3]) were 56 min^–1 and 1.0 s^–1, respectively. Also, the Km in data set [3] is 7 µM.

B1: CthIspH–RPS1 (Acetivibrio thermocellus ATCC 27405) (protein)
chain: MEIIVAKSAGFCFGVSNAVKTVNNLLENQKEPIYTYGPIIHNAQVVDLFTSKGVKKIDDIDEAEPNGHIVIRAHGVTPDIYKKISDKGLILEDATCPYVKKIHNLVKEKSEEGYKIIIVGDRNHPEVIGINGWCNNQAYIVDSVDDVEKFPTSDEKVCVVAQTTITNEKWLEVNTALKKKFKNILKFDTICSATSRRQNEAEEIAKNVDMMIIIGGKNSSNTQKLYDICKKHCNLTYKIETSGDLPPVDIKKIKKVGISAGASTPDWVIEEVIKKMSELNKQGMVDILENDGEIDFANAFENSFVRIHAGDTVKGKIIGFNSNEVFVDLGYKADGIIPLEEYTDDPNFNIEKEVKIGEEVEVLVEMVNDGEGNVRLSKRKVDAIKSWDDIVKAYENKTPVNAYVVEVVKGGVIASYKGVRIFVPASQVSDRYVKDLNEFLKRSITVRILELNEKRRKVVGSARVIIEEEKEALANRTWNSMEVGKVFKGTVKSLTDFGAFVDIGGVDGLIHISELSWTRVKHPSEVLKVGDEVEVTVLEFDKEKKKVSLGYRKMEDNPWYKIEEKYKVGDVVKVTVLRFAPFGAFVELEKGVDGLVHISQISSKRLAKVEDALEIGMKVDAKIIEVDGENKKISLSIKEVMPIDPPSSKSESKAKDGSEAKETSANTEEEAEPTEHREDMNVTVEDLVSKTTQS
For B1, the Km in data set [4] was found to be 15 µM.
